Assay results as given in US20060205740A1, “Chemical compounds” (priority 2003, published 2006).

Columns and labels:
EGFR = molecular target: T1, EGFR (Homo sapiens, UniProt P00533); assay: EGFR substrate phosphorylation enzyme assay (HTRF); format: biochemical; details: isolated enzyme, 20 μM ATP
T1 construct: made in house; host or cells: baculovirus expression system
Description: Compounds of the present invention were tested for EGFR, ErbB-2, and ErbB4 protein tyrosine kinase Inhibitory activity in substrate phosphorylation assays using enzymes purified from a baculovirus expression system.
(§1) The method measures the ability of the isolated enzyme to catalyse the transfer of the γ-phosphate from ATP onto the tyrosine residue of a biotinylated synthetic peptide (biotin-Ahx-[…]-amide). The extent of tyrosine phosphorylation was measured using an anti-phosphotyrosine antibody, and quantified by homogenous time-resolved fluorescence (HTRF).
(§2) The enzymes were first diluted from their concentrated stock solutions into buffer containing 100 mM MOPS (pH7.5); 0.01% Tween-20; 0.1 mg/mL bovine serum albumin (BSA); and 80 nM EGFR, 100 nM ErbB2, or 100 nM ErbB4. The enzymes were incubated in this buffer for 30 minutes at room temperature before addition to the assay plates. Reactions were performed in black 384-well polystyrene flat-bottom plates in a final volume of 20 μL. Reaction mixtures contained 100 mM MOPS (pH 7.5), 2 mM MnCl2, 20 μM ATP, 0.01% Tween-20, 0.1 mg/mL (BSA), 0.8 μM peptide substrate, and 1 mM dithiothreitol. Reactions were initiated by adding enzyme. 0.4 nM EGRF, 5 nM ErbB2, and 0.5 nM ErbB4 were the final enzyme concentrations.
Reactions were allowed to proceed for 90 minutes and were then terminated by the addition of 20 μL 100 mM EDTA to each well. 40 μL/well of HTRF mix were then added to the assay plates for the detection of phosphorylated substrate.
Compounds under analysis were dissolved in Me2SO to 1.0 mM and serially diluted 1 to 3 with Me2SO through twelve dilutions. 1 μL of each concentration was transferred to the corresponding well of an assay plate.
Data were fitted with a curve described by: y=((Vmax*x)/(K+x))+Y2 where Vmax is the upper asymptote, Y2 is the Y intercept, and K is the IC50.

ErbB2 = molecular target: T2, ErbB2 (Homo sapiens, UniProt P04626); assay: ErbB2 substrate phosphorylation enzyme assay (HTRF); format: biochemical; details: isolated enzyme, 20 μM ATP
T2 construct: made in house; host or cells: baculovirus expression system
Description: Compounds of the present invention were tested for EGFR, ErbB-2, and ErbB4 protein tyrosine kinase Inhibitory activity in substrate phosphorylation assays using enzymes purified from a baculovirus expression system. Reagent production was conducted essentially as described (Brignola, P. S., et al, (2002) J. Biol. Chem. v. 277 2, 1576-1585).
as §1, §2
Reactions were allowed to proceed for 90 minutes and were then terminated by the addition of 20 μL 100 mM EDTA to each well. 40 μL/well of HTRF mix were then added to the assay plates for the detection of phosphorylated substrate. Final assay concentrations were: 100 mM HEPES (pH7.5), 0.1 mg/mL BSA, 15 nM streptavidin-labeled allophycocyanin (PerkinElmer), and 1 nM europium-labeled anti-phosphotyrosine antibody (PerkinElmer). Assay plates were left unsealed and were counted in a Wallac Multilabel Counter 1420 (PerkinElmer).
Compounds under analysis were dissolved in Me2SO to 1.0 mM and serially diluted 1 to 3 with Me2SO through twelve dilutions. 1 μL of each concentration was transferred to the corresponding well of an assay plate. This creates a final compound concentration range from 0.00027 to 47.6 μM.
The data for dose responses were plotted as % Inhibition calculated with the data reduction formula 100*(1−(U1−C2)/(C1−C2)) versus concentration of compound where U is the unknown value, C1 is the average control value obtained for 4.76% DMSO, and C2 is the average control value obtained for 0.035 M EDTA. Data were fitted with a curve described by: y=((Vmax*x)/(K+x))+Y2 where Vmax is the upper asymptote, Y2 is the Y intercept, and K is the IC50. The results for reach compound were recorded as pIC50s, calculated as follows: pIC50=−Log10(K)

T1 sequence (P00533 669-1210 limits assumed): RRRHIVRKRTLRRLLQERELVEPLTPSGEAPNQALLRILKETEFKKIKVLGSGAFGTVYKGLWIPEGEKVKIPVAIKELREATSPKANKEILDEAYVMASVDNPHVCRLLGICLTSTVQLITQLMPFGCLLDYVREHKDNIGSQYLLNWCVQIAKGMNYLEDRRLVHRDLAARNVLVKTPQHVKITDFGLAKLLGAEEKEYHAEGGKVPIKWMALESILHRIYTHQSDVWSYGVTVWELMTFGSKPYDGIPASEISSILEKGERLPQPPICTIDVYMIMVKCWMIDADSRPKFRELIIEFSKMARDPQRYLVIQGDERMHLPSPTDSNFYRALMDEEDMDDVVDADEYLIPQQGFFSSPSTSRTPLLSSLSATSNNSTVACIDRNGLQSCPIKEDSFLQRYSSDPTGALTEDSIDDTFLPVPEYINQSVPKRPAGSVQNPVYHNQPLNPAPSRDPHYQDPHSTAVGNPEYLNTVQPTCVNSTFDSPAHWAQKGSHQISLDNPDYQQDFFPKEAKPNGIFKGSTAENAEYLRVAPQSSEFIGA
T2 sequence (P04626 676-1255 limits assumed): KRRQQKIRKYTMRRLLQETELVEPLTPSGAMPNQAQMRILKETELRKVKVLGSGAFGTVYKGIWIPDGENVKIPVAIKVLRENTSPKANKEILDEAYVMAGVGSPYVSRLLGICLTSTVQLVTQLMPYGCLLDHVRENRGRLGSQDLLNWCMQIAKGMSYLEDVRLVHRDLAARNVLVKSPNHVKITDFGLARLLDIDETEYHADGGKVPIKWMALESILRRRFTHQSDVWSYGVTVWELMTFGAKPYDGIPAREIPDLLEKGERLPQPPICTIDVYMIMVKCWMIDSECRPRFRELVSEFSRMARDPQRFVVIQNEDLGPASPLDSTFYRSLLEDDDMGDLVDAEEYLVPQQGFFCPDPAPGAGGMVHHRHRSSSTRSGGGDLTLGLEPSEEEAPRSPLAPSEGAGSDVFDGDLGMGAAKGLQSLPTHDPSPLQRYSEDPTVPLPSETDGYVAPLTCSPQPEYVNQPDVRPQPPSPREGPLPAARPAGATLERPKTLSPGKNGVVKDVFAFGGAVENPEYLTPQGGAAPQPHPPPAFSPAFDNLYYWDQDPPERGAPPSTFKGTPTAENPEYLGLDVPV

In the case of `C(=C\c1cncnc1Nc1ccc2c(cnn2Cc2ccccc2)c1)/c1cn[nH]c1` [Example 9, 1-Benzyl-N-{5-[(E)-2-(1H-pyrazol-4-yl)ethenyl]pyrimidin-4-yl}-1H-indazol-5-amine], the IC50 (EGFR) is reported as 100 to 1000 nM and the IC50 (ErbB2) is reported as 100 to 1000 nM.
`Fc1cccc(COc2ccc(Nc3ncncc3/C=C/c3ccsc3)cc2Cl)c1` [Example 17, N-{3-Chloro-4-[(3-fluorobenzyl)oxy]phenyl}-5-[(E)-2-thien-3-yletheny]pyrimidin-4-amine] was tested, and the IC50 (EGFR) was < 100 nM and the IC50 (ErbB2) was < 100 nM.
With `Fc1cccc(COc2ccc(Nc3ncncc3C#Cc3cccc(CN4CCCCC4)n3)cc2Cl)c1` [Example 92, N-{3-Chloro-4-[(3-fluorobenzyl)oxy]phenyl}-5-([6-(1-piperidinylmethyl)-2-pyridinyl]ethynyl}-4-pyrimidinamine] the IC50 (EGFR) was < 100 nM and the IC50 (ErbB2) was < 100 nM.
In the case of `COc1ccc(/C=C/c2cncnc2Nc2ccc(OCc3cccc(F)c3)c(Cl)c2)cc1OC` [Example 21, N-{3-Chloro-4-[(3-fluorobenzyl)oxy]phenyl}-5-[(E)-2-(3,4-dimethoxyphenyl)ethenyl]pyrimidin-4-amine], the IC50 (EGFR) is reported as < 100 nM and the IC50 (ErbB2) is reported as < 100 nM.
`Fc1cccc(COc2ccc(Nc3ncncc3/C=C/c3ccccc3)cc2Cl)c1` [Example 22, N-{3-Chloro-4-[(3-fluorobenzyl)oxy]phenyl}-5-[(E)-2-phenylethenyl]pyrimidin-4-amine] was tested, and the IC50 (EGFR) was < 100 nM and the IC50 (ErbB2) was < 100 nM.
`Fc1cccc(COc2ccc(Nc3ncncc3/C=C/c3ccncc3)cc2Cl)c1` [Example 14, N-{3-Chloro-4-[(3-fluorobenzyl)oxy]phenyl}-5-[(E)-2-pyridin-4-ylethenyl]pyrimidin-4-amine] was tested, and the IC50 (EGFR) was < 100 nM and the IC50 (ErbB2) was < 100 nM.
In the case of `O=C(Nc1cccc(C#Cc2cncnc2Nc2ccc(OCc3cccc(F)c3)c(Cl)c2)n1)C(F)(F)F` [Example 100, N-(6-{[4-({3-Chloro-4-[(3-fluorobenzyl)oxy]phenyl}amino)pyrimidin-5-yl]ethynyl}pyridin-2-yl)-2,2,2-trifluoroacetamide], the IC50 (EGFR) is reported as < 100 nM and the IC50 (ErbB2) is reported as < 100 nM.
With `C(=C\c1cncnc1Nc1ccc2sc(Cc3ccccc3)nc2c1)/c1ccsc1` [Example 5, 2-Benzyl-N-{5-[(E)-2-thien-3-ylethenyl]pyrimidin-4-yl}-1,3-benzothiazol-5-amine] the IC50 (EGFR) was > 1000 nM and the IC50 (ErbB2) was > 1000 nM.
`Nc1cccc(C#Cc2cncnc2Nc2ccc(OCc3cccc(F)c3)c(Cl)c2)n1` [Example 67, 5-[(6-Amino-2-pyridinyl)ethynyl]-N-(3-chloro-4-{[(3-fluorophenyl)methyl]oxy}phenyl)4-pyrimidinamine] was tested, and the IC50 (EGFR) was < 100 nM and the IC50 (ErbB2) was < 100 nM.
Work on `Fc1cccc(COc2ccc(Nc3ncncc3C#Cc3cccc(CNCCN4CCOCC4)n3)cc2Cl)c1` [Example 76, N-{3-Chloro-4-[(3-fluorobenzyl)oxy]phenyl}-5-{[6-({[2-(4-morpholinyl)ethyl]amino}methyl)-2-pyridinyl]ethynyl}-4-pyrimidinamine] yielded an IC50 (EGFR) of 100 to 1000 nM and an IC50 (ErbB2) of 100 to 1000 nM.
`COC(=O)CCC(=O)Nc1cccc(C#Cc2cncnc2Nc2ccc(OCc3cccc(F)c3)c(Cl)c2)n1` [Example 71, Methyl 4-({6-[(4-{3-chloro-4-[(3-fluorobenzyl)oxy]anilino}-5-pyrimidinyl)ethynyl]-2-pyridinyl}amino)-4-oxobutanoate] showed an IC50 (EGFR) of 100 to 1000 nM and an IC50 (ErbB2) of 100 to 1000 nM.
For `CS(=O)(=O)CCNc1cccc(C#Cc2cncnc2Nc2ccc(OCc3cccc(F)c3)c(Cl)c2)n1` [Example 72, N-{3-Chloro-4-[(3-fluorobenzyl)oxy]phenyl}-5-[(6-{[2-(methylsulfonyl)ethyl]amino}-2-pyridinyl)ethynyl]-4-pyrimidinamine], the IC50 (EGFR) was > 1000 nM and the IC50 (ErbB2) was > 1000 nM.
For `COCc1cccc(C#Cc2cncnc2Nc2ccc(OCc3cccc(F)c3)c(Cl)c2)n1` [Example 80, N-{3-Chloro-4-[(3-fluorobenzyl)oxy]phenyl}-5-{[6-(methoxymethyl)-2-pyridinyl]ethynyl}-4-pyrimidinamine], the IC50 (EGFR) was > 1000 nM and the IC50 (ErbB2) was > 1000 nM.
In the case of `CS(=O)(=O)CCNC(=O)NCc1cccc(C#Cc2cncnc2Nc2ccc(OCc3cccc(F)c3)c(Cl)c2)n1` [Example 88, N-({6-[(4-{3-Chloro-4-[(3-fluorobenzyl)oxy]anilino}-5-pyrimidinyl)ethynyl]-2-pyridinyl}methyl)-N′-[2-(methylsulfonyl)ethyl]urea], the IC50 (EGFR) is reported as < 100 nM and the IC50 (ErbB2) is reported as < 100 nM.
For `Nc1nccc(C#Cc2cncnc2Nc2ccc(OCc3cccc(F)c3)c(Cl)c2)n1` [Example 99, 4-{[4-({3-Chloro-4-[(3-fluorobenzyl)oxy]phenyl}amino)pyrimidin-5-yl]ethynyl}pyrimidin-2-amine], the IC50 (ErbB2) was < 100 nM.
In the case of `Fc1cccc(COc2ccc(Nc3ncncc3C#Cc3cccc(CNCCCn4ccnc4)n3)cc2Cl)c1` [Example 78, N-{3-Chloro-4-[(3-fluorobenzyl)oxy]phenyl}-5-{[6-({[3-(1H-imidazol-1-yl)propyl]amino}methyl)-2-pyridinyl]ethynyl}-4-pyrimidinamine], the IC50 (EGFR) is reported as < 100 nM and the IC50 (ErbB2) is reported as < 100 nM.
With `O=C(NCCN1CCOCC1)NCc1cccc(C#Cc2cncnc2Nc2ccc(OCc3cccc(F)c3)c(Cl)c2)n1` [Example 89, N-({6-[(4-{3-Chloro-4-[(3-fluorobenzyl)oxy]anilino}-5-pyrimidinyl)ethynyl]-2-pyridinyl}methyl)-N′-[2-(4-morpholinyl)ethyl]urea] the IC50 (EGFR) was < 100 nM and the IC50 (ErbB2) was < 100 nM.
For `CN(C)CCCC(=O)Nc1cccc(C#Cc2cncnc2Nc2ccc(OCc3cccc(F)c3)c(Cl)c2)n1` [Example 70, N-{6-[(4-{3-Chloro-4-[(3-fluorobenzyl)oxy]anilino}-5-pyrimidinyl)ethynyl]-2-pyridinyl}-4-(dimethylamino)butanamide], the IC50 (EGFR) was < 100 nM and the IC50 (ErbB2) was < 100 nM.
`N=C(N)Nc1cccc(C#Cc2cncnc2Nc2ccc(OCc3cccc(F)c3)c(Cl)c2)c1` [Example 49, N-(3-{[4-({3-Chloro-4-[(3-fluorobenzyl)oxy]phenyl}amino)pyrimidin-5-yl]ethynyl}phenyl)guanidine] was tested, and the IC50 (EGFR) was 100 to 1000 nM and the IC50 (ErbB2) was < 100 nM.
In the case of `CC(=O)Nc1cccc(/C=C/c2cncnc2Nc2ccc(OCc3cccc(F)c3)c(Cl)c2)c1` [Example 20, N-(3-{(E)-2-[4-({3-Chloro-4-[(3-fluorobenzyl)oxy]phenyl}amino)pyrimidin-5-yl]ethenyl}phenyl)acetamide], the IC50 (EGFR) is reported as < 100 nM and the IC50 (ErbB2) is reported as < 100 nM.
